Among the data in patent publication US12338262B2 (Forward Therapeutics, Inc., priority 2022, dated 2025) are IC50 values, retold here.

This assay concerns the target TNF-α (Homo sapiens, UniProt P01375). Briefly: TNF-α Induced HEK Blue Cellular Assay. In kind it is cell-based. The note with it: HEK Blue TNFα reporter cells, TNF-α 100 pg/ml, 24 hrs at 37° C., secreted alkaline phosphatase (QUANTI-Blue, 620 nm). The gist of the method: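 HEK Blue TNFα reporter cells (10,000/well, DMEM + 10% FBS) treated with compound ([…] to 0.5 nM final) and stimulated with 100 pg/ml TNF-α for 24 h at 37 °C. Secreted alkaline phosphatase read with QUANTI-Blue at 620 nm; IC50 by 4-parameter logistic fit after background correction to stimulated/unstimulated DMSO controls.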

TNF-α, sequence (P01375 77-233 limits assumed): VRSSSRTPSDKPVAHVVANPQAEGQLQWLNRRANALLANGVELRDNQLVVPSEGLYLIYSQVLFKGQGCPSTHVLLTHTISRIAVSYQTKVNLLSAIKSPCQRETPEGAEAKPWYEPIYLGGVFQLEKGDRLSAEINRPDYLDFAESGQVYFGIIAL

What is called IC50 is the midpoint of a concentration-inhibition curve. A higher IC50 goes with weaker potency. Take `CC[C@@H](Nc1c(Cl)c(C)nc2cc(F)c(-c3cnc(OCP(C)(C)=O)nc3)nc12)c1cccc(F)c1F` [Example 125, 3-chloro-N-[(1R)-1-(2,3-difluorophenyl)propyl]-6-{2-[(dimethylphosphoryl)methoxy]pyrimidin-5-yl}-7-fluoro-2-methyl-1,5-naphthyridin-4-amine]: the 50% inhibitory concentration (IC50) was not above 1 µM.
Take `CC[C@H](Nc1c(Cl)c(C)nc2cc(F)c(-c3cnc(OCP(C)(C)=O)nc3)nc12)c1cccc(F)c1F` [Example 126, 3-chloro-N-[(1S)-1-(2,3-difluorophenyl)propyl]-6-{2-[(dimethylphosphoryl)methoxy]pyrimidin-5-yl}-7-fluoro-2-methyl-1,5-naphthyridin-4-amine]: the half-inhibitory concentration (IC50) is not above 0.1 µM.
`CC[C@H](Nc1c(Cl)c(C)nc2cc(F)c(-c3cnc(P(C)(C)=O)nc3)nc12)c1cccc(F)c1F` [Example 127, 3-chloro-N-[(1S)-1-(2,3-difluorophenyl)propyl]-6-[2-(dimethylphosphoryl)pyrimidin-5-yl]-7-fluoro-2-methyl-1,5-naphthyridin-4-amine] registered an IC50 not above 1 µM.
Regarding `Cc1nc2cc(F)c(-c3cnc(P(C)(C)=O)c(F)c3)nc2c(N[C@H](C)c2cc(F)cc(F)c2)c1Cl` [Example 128, 3-chloro-N-[(1R)-1-(3,5-difluorophenyl)ethyl]-6-[6-(dimethylphosphoryl)-5-fluoropyridin-3-yl]-7-fluoro-2-methyl-1,5-naphthyridin-4-amine], the IC50 lay in the range of 10 to 30 µM.
In turn, `Cc1nc2cc(F)c(-c3cnc(P(C)(C)=O)c(F)c3)cc2c(N[C@H](C)c2cc(F)cc(F)c2)c1Cl` [Example 129, 3-chloro-N-[(1R)-1-(3,5-difluorophenyl)ethyl]-6-[6-(dimethylphosphoryl)-5-fluoropyridin-3-yl]-7-fluoro-2-methylquinolin-4-amine] returned an IC50 of 10 to 30 µM.
`Cc1nc2cc(F)c(-c3ccc(P(C)(C)=O)nc3)nc2c(N[C@H](C)c2cc(F)cc(Cl)c2)c1Cl` [Example 130, 3-chloro-N-[(1R)-1-(3-chloro-5-fluorophenyl)ethyl]-6-[6-(dimethylphosphoryl)pyridin-3-yl]-7-fluoro-2-methyl-1,5-naphthyridin-4-amine] showed an IC50 not above 1 µM.
Regarding `Cc1nc2cc(F)c(-c3cnc(P(C)(C)=O)nc3)nc2c(N[C@H](C)c2cc(C#N)cc(F)c2F)c1Cl` [Example 131, 3-[(1R)-1-({3-chloro-6-[2-(dimethylphosphoryl)pyrimidin-5-yl]-7-fluoro-2-methyl-1,5-naphthyridin-4-yl}amino)ethyl]-4,5-difluorobenzonitrile], the IC50 is not above 1 µM.
Next, `CC[C@H](Nc1c(Cl)c(C)nc2cc(F)c(-c3cnc(P(C)(C)=O)nc3)nc12)c1ncccc1F` [Example 132, 3-chloro-6-[2-(dimethylphosphoryl)pyrimidin-5-yl]-7-fluoro-N-[(1S)-1-(3-fluoropyridin-2-yl)propyl]-2-methyl-1,5-naphthyridin-4-amine]: not above 1 µM; `Cc1nc2cc(F)c(-c3ccc(P(C)(C)=O)nc3)nc2c(N[C@H](C)c2cccc(F)c2F)c1C` [Example 133, N-[(1R)-1-(2,3-difluorophenyl)ethyl]-6-[6-(dimethylphosphoryl)pyridin-3-yl]-7-fluoro-2,3-dimethyl-1,5-naphthyridin-4-amine]: not above 0.1 µM; `Cc1nc2cc(F)c(-c3ccc(P(C)(C)=O)nc3)nc2c(N[C@H](C)c2cccc(F)c2F)c1C1CC1` [Example 134, 3-cyclopropyl-N-[(1R)-1-(2,3-difluorophenyl)ethyl]-6-[6-(dimethylphosphoryl)pyridin-3-yl]-7-fluoro-2-methyl-1,5-naphthyridin-4-amine]: 1 to 10 µM.
Then `Cc1nc2cc(F)c(-c3cnc(P(C)(C)=O)c(F)c3)cc2c(N[C@H](C)c2cccc(F)c2F)c1Cl` [Example 135, 3-chloro-N-[(1R)-1-(2,3-difluorophenyl)ethyl]-6-[6-(dimethylphosphoryl)-5-fluoropyridin-3-yl]-7-fluoro-2-methylquinolin-4-amine], with not above 0.1 µM.
For `Cc1nc2cc(F)c(-c3ccc(P(C)(C)=O)nc3)nc2c(NC(c2ncccc2F)C2CC2)c1Cl` (centres unmarked) [Example 136, 3-chloro-N-[cyclopropyl(3-fluoropyridin-2-yl)methyl]-6-[6-(dimethylphosphoryl)pyridin-3-yl]-7-fluoro-2-methyl-1,5-naphthyridin-4-amine], the half-maximal inhibitory concentration (IC50) is not above 1 µM.
`Cc1nc2cc(F)c(-c3ccc(P(C)(C)=O)nc3)nc2c(N[C@@H](c2ccccc2)C2CC2)c1Cl` [Example 137, 3-chloro-N—[(R)-cyclopropyl(phenyl)methyl]-6-[6-(dimethylphosphoryl)pyridin-3-yl]-7-fluoro-2-methyl-1,5-naphthyridin-4-amine] registered an IC50 not above 1 µM.
Turning to `Cc1nc2cc(F)c(-c3ccc(P(C)(C)=O)nc3)nc2c(N[C@@H](c2cc(F)cc(F)c2)C2CC2)c1Cl` [Example 138, 3-chloro-N—[(R)-cyclopropyl(3,5-difluorophenyl)methyl]-6-[6-(dimethylphosphoryl)pyridin-3-yl]-7-fluoro-2-methyl-1,5-naphthyridin-4-amine], the concentration for half-maximal inhibition (IC50) is not above 1 µM.
`Cc1nc2cc(F)c(-c3ccc(P(C)(C)=O)nc3)nc2c(N[C@H](c2cc(F)cc(F)c2)C2CC2)c1Cl` [Example 139, 3-chloro-N—[(S)-cyclopropyl(3,5-difluorophenyl)methyl]-6-[6-(dimethylphosphoryl)pyridin-3-yl]-7-fluoro-2-methyl-1,5-naphthyridin-4-amine] came in with a half-maximal inhibitory concentration (IC50) not above 1 µM.
In turn, `Cc1nc2cc(F)c(-c3ccc(P(C)(C)=O)nc3)nc2c(N[C@H](c2ccccc2)C2CC2)c1Cl` [Example 140, 3-chloro-N—[(S)-cyclopropyl(phenyl)methyl]-6-[6-(dimethylphosphoryl)pyridin-3-yl]-7-fluoro-2-methyl-1,5-naphthyridin-4-amine] came in with an IC50 not above 1 µM.
In turn, `Cc1nc2cc(F)c(-c3ccc(P4(=O)CCOCC4)nc3)nc2c(N[C@H](C)c2cc(C#N)ccc2F)c1Cl` [Example 141, 3-[(1R)-1-({3-chloro-7-fluoro-2-methyl-6-[6-(4-oxo-1,4lambda5-oxaphosphinan-4-yl)pyridin-3-yl]-1,5-naphthyridin-4-yl}amino)ethyl]-4-fluorobenzonitrile] had a 50% inhibitory concentration (IC50) of 1 to 10 µM.
Take `Cc1nc2cc(F)c(-c3ccc(P(C)(C)=O)nc3)nc2c(NC(c2cccc(F)c2F)C(C)(F)F)c1Cl` (centres unmarked) [Example 142, 3-chloro-N-[1-(2,3-difluorophenyl)-2,2-difluoropropyl]-6-[6-(dimethylphosphoryl)pyridin-3-yl]-7-fluoro-2-methyl-1,5-naphthyridin-4-amine]: the concentration for half-maximal inhibition (IC50) is 1 to 10 µM.
Then `Cc1nc2cc(F)c(-c3ccc(P4(=O)CCOCC4)nc3)nc2c(N[C@H](C)c2cccc(F)c2F)c1Cl` [Example 143, 4-[5-(7-chloro-8-{[(1R)-1-(2,3-difluorophenyl)ethyl]amino}-3-fluoro-6-methyl-1,5-naphthyridin-2-yl)pyridin-2-yl]-1,4lambda5-oxaphosphinan-4-one], with 10 to 30 µM; and `Cc1nc2cc(F)c(-c3ccc(P(C)(C)=O)nc3)nc2c(N[C@H](C)c2cccc(F)c2F)c1C#N` [Example 144, 4-{[(1R)-1-(2,3-difluorophenyl)ethyl]amino}-6-[6-(dimethylphosphoryl)pyridin-3-yl]-7-fluoro-2-methyl-1,5-naphthyridine-3-carbonitrile], with 10 to 30 µM.
